Patent US20230390319A1, “INTERFERON GENE STIMULATOR COMPOSITION COMPRISING INDOLIZINE DERIVATIVE AS ACTIVE INGREDIENT” (AJOU UNIVERSITY INDUSTRY-ACADEMIC COOPERATION FOUNDATION, priority 2020, published 2023)
“Also recorded” adds a separate entry of the source. Like-named read-outs stand apart in the source and are kept apart here.

Experiments:
ISRE reporter signal = assay: ISRE luciferase reporter assay, THP-1 cells co-treated with compound and cGAMP; assay type: cell-based, Human
Description: (§1) Human monocytic THP-1 wild-type (WT) and STING knockout (KO) cell lines were obtained from InvivoGen. Cells were cultured in 1×RPMI 1640 medium containing 10% fetal bovine serum (FBS, Hyclone), 2.05 mM L-glutamine (Hyclone) and 1% penicillin (Corning) in a humidified incubator at 37° C. under 5% CO2.
(§2) To confirm immune responses, THP-1 cells were placed in 384-well plates (Grenier), and treated with each compound and cGAMP (1 μg/ml), and after 24 hours, ISRE activity was analyzed. QUANTI-Luc assay (InvivoGen) was performed using the cell culture supernatant to confirm the luciferase reporter gene signal. Fluorescent signals were measured using a TECAN micro plate reader SPARK, and the results were normalized to DMSO control.
(§3) THP-1 cells were co-treated with each of 86 indolizine derivatives and a very small amount of cGAMP (1 μg/ml), the immune response of the THP-1 cells was examined by ISRE reporter assay, and the cytotoxicity of co-treatment was also evaluated (Table 1). All results were compared by normalization to the reporter assay results obtained by treatment with cGAMP alone. […] Thus, Compound 42 was used in subsequent experiments.

THP-1 cells = assay: Cell viability assay (CellTiter Clo) in THP-1 cells; assay type: cell-based, Human
Description: as §1
Cells were analyzed using CellTiter Clo (CTG, Promega). […] was measured using a TECAN micro plate reader SPARK. Results were normalized to DMSO control.
as §3

STING KO cell line = assay: ISRE reporter assay in THP-1 STING KO cell line; assay type: cell-based, Human; settings: co-treatment with cGAMP, FIG. 1
Description: as §1, §2

human IFN-β and IP-10 = assay: ELISA of cytokine levels in THP-1 cell supernatants; assay type: cell-based; settings: FIG. 3
Description: Cytokine levels were determined by ELISA analysis. THP-1 cells were placed in a 96-well U bottom plate and tested after 24 hours of treatment with each compound and cGAMP (1 μg/ml). After culturing, cell supernatants were collected and human IFN-β and IP-10 levels were determined by ELISA analysis.

STING = assay: Activity comparison with STING pathway-activating therapeutic agent MV658; assay type: cell-based; settings: compared with ENPP inhibitor MV658, FIG. 6
[1] = PK profiles after IV and PO administration to BALB/c mice; assay type: in vivo; settings: BALB/c, mouse, blood; for concentration at 0.5 h: 0.50 h; for AUC(0-t): read-out: AUClast AUC(0-t); for C0: read-out: C0; for Cmax: read-out: Cmax; for MRT inf: read-out: MRTINF_obs MRT(0-∞); for MRT last: read-out: MRTlast MRT(0-t)
Description: The pharmacokinetics and oral bioavailability of Compound 42 were investigated in mice following single intravenous (IV) injection and oral administration (PO).

[2] = iv, 5 mg/kg, IV 5 mg/kg, individual animals 101-103, read-out: concentration in blood
[3] = iv, 5 mg/kg, IV 5 mg/kg, mean, read-out: concentration in blood, Mean IV
[4] = iv, 5 mg/kg, IV 5.0 mg/kg, individual animals
[5] = iv, 5 mg/kg, IV 5.0 mg/kg, mean n=3
[6] = po, 20 mg/kg, PO 20 mg/kg, individual animals 201-203, read-out: concentration in blood
[7] = po, 20 mg/kg, PO 20 mg/kg, mean, read-out: concentration in blood, Mean PO

CC(=O)c1ccc(-c2cc(C(=O)c3ccc(C(F)(F)F)cc3)n3ccccc23)cc1 [Compound 42]
ISRE reporter effect in WT cell line (ISRE reporter signal; THP-1 WT, co-treatment with cGAMP, FIG. 1): increased effect
Normalized RU (relative unit of ISRE reporter signal) (ISRE reporter signal; THP-1 cells, 20 μM of each compound, co-treated with cGAMP (1 μg/ml), 24 hours): 9.32
efficacy in ISRE reporter assay (ISRE reporter signal; co-administered with cGAMP, among 86 indolizine derivatives): highest efficacy
Normalized cell viability (THP-1 cells; THP-1 cells, 20 μM of each compound, co-treated with cGAMP (1 μg/ml)): 1.20
cytotoxicity of co-treatment (THP-1 cells; co-treatment with cGAMP): no cytotoxicity; also recorded: did not cause toxicity
ISRE reporter effect in STING KO cell line (STING KO cell line): no effect
cytokine secretion (IFN-β, IP-10) (human IFN-β and IP-10; co-treatment with cGAMP compared to cGAMP alone, concentration-dependent): increased cytokine secretion very effectively
immune response, compound alone (human IFN-β and IP-10; treatment with Compound 42 alone): induced no immune response
degree of STING-dependent immune response activation (STING): better activity
bioavailability ([1]; 20 mg/kg, PO administration of 20 mpk): ~18%
concentration at 0.083 h [1, 2]: 2590 ng/mL
concentration at 0.083 h [1, 3]: 2750 ng/mL
concentration at 0.25 h [1, 2]: 1520 ng/mL
concentration at 0.25 h [1, 3]: 1420 ng/mL
concentration at 0.5 h [1, 2]: 803 ng/mL
concentration at 0.5 h [1, 3]: 820 ng/mL
concentration at 1 h [1, 2]: 379 ng/mL
concentration at 1 h [1, 3]: 350 ng/mL
concentration at 4 h [1, 2]: 97.9 ng/mL
concentration at 4 h [1, 3]: 107 ng/mL
concentration at 24 h [1, 2]: 29.2 ng/mL
concentration at 24 h [1, 3]: 34.9 ng/mL
AUC(0-inf) ([1]; iv, 5 mg/kg, IV 5.0 mg/kg, individual animals, read-out: AUCINF_obs AUC(0-∞)): 3420 ng·h/mL
AUC(0-t) [1, 4]: 3160 ng·h/mL
C0 [1, 4]: 3380 ng/mL
clearance ([1]; iv, 5 mg/kg, IV 5.0 mg/kg, individual animals, read-out: Cl_obs Cl (converted)): 24.4 mL/min/kg
Cmax [1, 4]: 2590 ng/mL
half-life ([1]; iv, 5 mg/kg, IV 5.0 mg/kg, individual animals, read-out: HL_Lambda_z T1/2 (converted)): 6.03 h
MRT inf [1, 4]: 6.07 h
MRT last [1, 4]: 3.93 h
Vd ([1]; iv, 5 mg/kg, IV 5.0 mg/kg, individual animals, read-out: Vss_obs Vss): 8.88 L/kg
Vd ([1]; iv, 5 mg/kg, IV 5.0 mg/kg, individual animals, read-out: Vz_obs Vz): 12.7 L/kg
AUC(0-inf) ([1]; iv, 5 mg/kg, IV 5.0 mg/kg, mean n=3, read-out: AUCINF_obs AUC(0-∞)): 3700 ng·h/mL
AUC(0-t) [1, 5]: 3300 ng·h/mL
C0 [1, 5]: 3830 ng/mL
clearance ([1]; iv, 5 mg/kg, IV 5.0 mg/kg, mean n=3, read-out: Cl_obs Cl (converted)): 22.7 mL/min/kg
Cmax [1, 5]: 2750 ng/mL
half-life ([1]; iv, 5 mg/kg, IV 5.0 mg/kg, mean n=3, read-out: HL_Lambda_z T1/2 (converted)): 7.76 h
MRT inf [1, 5]: 7.6 h
MRT last [1, 5]: 4.27 h
Vd ([1]; iv, 5 mg/kg, IV 5.0 mg/kg, mean n=3, read-out: Vss_obs Vss): 10.2 L/kg
Vd ([1]; iv, 5 mg/kg, IV 5.0 mg/kg, mean n=3, read-out: Vz_obs Vz): 15 L/kg
AUC(0-inf) ([1]; iv, 5 mg/kg, IV administration of 5 mg/kg (mpk), read-out: AUC∞): 3700 ng·h/mL
Cmax ([1]; iv, 5 mg/kg, IV administration of 5 mg/kg (mpk)): 2750 ng/mL
half-life ([1]; iv, 5 mg/kg, IV administration of 5 mg/kg (mpk), read-out: half-life (converted)): ~7.76 h
clearance ([1]; iv, 5 mg/kg, IV administration, read-out: mean blood clearance): 22.7 mL/min/kg
Vd ([1]; iv, 5 mg/kg, IV administration, read-out: mean volume of distribution at steady state (Vss)): 10.2 L/kg
concentration at 0.25 h [1, 6]: 75.3 ng/mL
concentration at 0.25 h [1, 7]: 89.9 ng/mL
concentration at 0.5 h [1, 6]: 139 ng/mL
concentration at 0.5 h [1, 7]: 156 ng/mL
concentration at 1 h [1, 6]: 211 ng/mL
concentration at 1 h [1, 7]: 225 ng/mL
